Assay results from ChEMBL document CHEMBL1153296, “Design and synthesis of novel tri-aryl CB2 selective cannabinoid ligands” (Bioorg Med Chem Lett, 2009).

What was measured:
Cannabinoid receptor 1 = Cannabinoid receptor 1 (Homo sapiens, UniProt P21554); assay: Binding affinity to human CB1 receptor transfected in HEK293 cells; format: cell-based
Homo sapiens = species on record: Homo sapiens; assay: Selectivity ratio of Ki for human CB1 receptor to Ki for human CB2 receptor
Cannabinoid receptor 2 = Cannabinoid receptor 2 (Homo sapiens, UniProt P34972); assay: Binding affinity to human CB2 receptor transfected in HEK293 cells; format: cell-based
Sequence of Cannabinoid receptor 2 (P34972 whole entry): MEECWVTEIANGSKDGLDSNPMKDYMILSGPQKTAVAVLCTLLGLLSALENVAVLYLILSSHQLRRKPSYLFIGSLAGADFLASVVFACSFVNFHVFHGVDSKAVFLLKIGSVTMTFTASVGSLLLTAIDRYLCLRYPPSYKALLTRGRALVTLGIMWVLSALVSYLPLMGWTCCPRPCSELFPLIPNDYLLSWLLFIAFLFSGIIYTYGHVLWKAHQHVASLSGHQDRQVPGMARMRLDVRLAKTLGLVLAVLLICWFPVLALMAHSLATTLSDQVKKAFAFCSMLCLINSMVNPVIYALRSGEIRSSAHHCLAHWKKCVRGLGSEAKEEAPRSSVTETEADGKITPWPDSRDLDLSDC

Sequence of Cannabinoid receptor 1 (P21554 whole entry): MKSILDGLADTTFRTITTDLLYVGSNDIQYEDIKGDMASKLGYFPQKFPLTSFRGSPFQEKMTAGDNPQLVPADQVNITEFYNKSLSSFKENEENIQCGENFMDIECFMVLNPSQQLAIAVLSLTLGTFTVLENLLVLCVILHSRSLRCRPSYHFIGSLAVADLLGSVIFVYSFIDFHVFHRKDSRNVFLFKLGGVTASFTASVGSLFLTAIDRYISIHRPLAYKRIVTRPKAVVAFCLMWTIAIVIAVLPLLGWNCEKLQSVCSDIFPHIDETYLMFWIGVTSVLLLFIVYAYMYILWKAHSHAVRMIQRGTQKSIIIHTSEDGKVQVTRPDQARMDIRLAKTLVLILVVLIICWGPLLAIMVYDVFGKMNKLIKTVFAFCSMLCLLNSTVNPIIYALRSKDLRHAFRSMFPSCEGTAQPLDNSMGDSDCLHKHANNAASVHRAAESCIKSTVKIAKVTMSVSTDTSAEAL

Structure (SMILES) | Ki (Cannabinoid receptor 1) [µM] | Ratio Ki (Homo sapiens) | Ki (Cannabinoid receptor 2) [µM]
COc1cc(C(=O)c2ccccc2)cc(O)c1-c1cc(Cl)cc(Cl)c1 | > 1 | 210 | 
COc1cc(C(O)c2ccccc2)cc(OC)c1-c1cc(Cl)cc(Cl)c1 (centres undefined) | > 1 | 602 | 
CC(C)(c1ccccc1)c1cc(O)c(-c2cc(Cl)cc(Cl)c2)c(O)c1 | 0.0937 | 87.5 | 0.00107
CC1=CC[C@@H]2[C@@H](C1)c1c(O)cc(C(C)(C)c3ccccc3)cc1OC2(C)C |  | 13.5 | 
O=C(c1ccccc1)c1cc(O)c(-c2cc(Cl)cc(Cl)c2)c(O)c1 |  | 9.2 | 
